Results taken from patent publication US6495152B2, “Sulfur containing polyhydroxyalkanoate compositions and method of production” (Tepha, Inc., priority 2000, dated 2002).

Experiments:
P. oleovorans = assay: Growth on MSM agar plates containing ATAs as sole carbon sources; type: cell-based, Pseudomonas oleovorans; set-up: key: +: growth; ++: good growth; −: no growth; *: thiol odor detected; conditions: sole carbon source
Source text: (§1) Bacterial strains and culture conditions. The PHA-negative mutant R. eutropha PHB^−4 (DSM 541) and a recombinant strain of R. eutropha PHB^−4 harbouring plasmid pBBR1::phaC1 expressing the PHA synthase 1 of Pseudomonas mendocina, as well as Pseudomonas putida KT2440 (Worsey & Williams, “Metabolism of toluene and xylenes by Pseudomonas putida (arvilla) mt-2: evidence for a new function of the TOL plasmid” in J Bacteriol 124:7-13 (1975)), P. aeruginosa PAO1 (ATCC 15692), P. oleovorans (ATCC 29347), and P. mendocina (DSM 50017) were used. Cultivations were performed in nutrient broth (NB) medium or mineral salts medium (MSM) according to Schlegel (1961), supra, to which different alkylthioalkanoic acids were added as carbon sources from filter-sterilized 10% (w/v) stock solutions at the concentrations indicated in the text. Fed batch cultivations were carried out under aerobic conditions at 30° C. in 2 l Erlenmeyer flasks containing 500 ml of medium which were agitated at 130 r.p.m. In order to promote PHA accumulation, the ammonia concentration was reduced to 0.05% (w/v) in MSM.
(§2) Growth and PHA accumulation of bacteria on alkylthioalkanoic acids. To evaluate the capabilities of various pseudomonades to use alkylthioalkanoic acids (ATAs) as carbon and energy sources for the synthesis of sulfur containing PHAs, growth experiments were carried out employing MSM agar plates which contained propylthioundecanoic acid (PTUD), propylthiooctanoic acid (PTO), octylthiohexanoic acid (OTHx), butylthiovaleric acid (BTV), or propylthiopropionic acid (PTP) as carbon sources.

P. putida = assay: as above; type: cell-based, Pseudomonas putida KT2440; set-up: key to Growth on MSM agar plates: +: growth; ++: good growth; −: no growth; *: thiol odor detected; conditions: sole carbon source; for Growth on MSM agar plates: P. putida
Source text: as §1, §2

P. aeruginosa = assay: as above; type: cell-based, Pseudomonas aeruginosa PAO1; set-up: key: +: growth; ++: good growth; −: no growth; *: thiol odor detected; conditions: sole carbon source
Source text: as §1, §2

P. mendocina = assay: as above; type: cell-based, Pseudomonas mendocina; set-up: key: +: growth; ++: good growth; −: no growth; *: thiol odor detected; conditions: sole carbon source
Source text: as §1, §2

Pseudomonas strains = assay: Growth experiments of pseudomonades on alkylthioalkanoic acids; type: cell-based; conditions: for Use as sole carbon source for growth: all Pseudomonas strains investigated; for Concentration above which cell growth was impaired: pseudomonades
Source text: as §1, §2

R. eutropha = assay: Growth experiments in mineral salts medium with sulfur-containing carbon sources; type: cell-based, R. eutropha H16; conditions: for Use as sole carbon source for growth: R. eutropha strain H16
Method: (§3) Bacterial strains and culture conditions. R. eutropha H16 (DSM 428) and R. eutropha PHB^−4 (DSM 541) were cultivated in nutrient broth (NB) growth medium or in mineral salts medium (MSM) (Schlegel et al., (1961) Arch. Mikrobiol. 38, 209-222) at 30° C. in Erlenmeyer flasks under aerobic conditions on a rotary shaker with 130 strokes/min. In order to promote PHA accumulation, the ammonia concentration was reduced to 0.05% (w/v). Carbon sources were added from filter-sterilized 20% (w/v) stock solutions at the concentrations indicated in the text.
as §3, with “PHB-4” for “PHB^−4”, “(Schlegel, 1961, supra)” for “(Schlegel et al., (1961) Arch. Mikrobiol. 38, 209-222)”, “filter-sterilized” for “filter-sterilized 20% (w/v)”

[1] = tested on: R. eutropha PHB-4 harboring pBBR1::phaC1; assay: Growth in MSM containing PTO as the sole carbon source; type: cell-based
Source text: as §1
Since growth of R. eutropha PHB-4 harboring pBBR1::phaC1 in MSM containing PTO as the sole carbon source was very poor, cultivations were carried out in complex medium (NB) or in MSM containing sodium gluconate as second utilizable carbon source in addition to PTO. […]

propylthioundecanoic acid [PTUD]
Growth on MSM agar plates (P. oleovorans; 0.4% (w/v)): ++* | Growth in comparison to other pseudomonades (P. putida; P. putida KT2440): significantly lower | Growth on MSM agar plates (P. putida; 0.4% (w/v)): +* | Growth on MSM agar plates (P. aeruginosa; 0.4% (w/v)): ++* | Growth on MSM agar plates (P. mendocina; 0.4% (w/v)): ++* | Use as sole carbon source for growth (Pseudomonas strains): able to use

O=C(O)CCSCCC(=O)O [TDP, 3,3′-thiodipropionic acid]
Use as sole carbon source for growth (R. eutropha): not able to use | Concentration up to which no toxic effects on growth were exerted (R. eutropha; mineral salts medium plus readily utilized carbon source such as gluconic acid): ≤ 1.5 % (w/v)

propylthiopropionic acid [PTP]
Growth on MSM agar plates (P. oleovorans; 0.2% (w/v)): − | Growth on MSM agar plates (P. putida; 0.2% (w/v)): − | Growth on MSM agar plates (P. aeruginosa; 0.2% (w/v)): − | Growth on MSM agar plates (P. mendocina; 0.2% (w/v)): − | Use as sole carbon source for growth (Pseudomonas strains): not used by any bacterium for growth

CCCCSCCCCC(=O)O [BTV]
Growth on MSM agar plates (P. oleovorans; 0.3% (w/v)): +* | Growth on MSM agar plates (P. putida; 0.3% (w/v)): +* | Growth on MSM agar plates (P. aeruginosa; 0.3% (w/v)): +* | Growth on MSM agar plates (P. mendocina; 0.3% (w/v)): +* | Use as sole carbon source for growth (Pseudomonas strains): able to use | Concentration above which cell growth was impaired (Pseudomonas strains): > 0.4 % (w/v)

CC(S)CC(=O)O (stereo not shown) [3-mercaptobutyric acid]
Use as sole carbon source for growth (R. eutropha): not able to use

octylthiohexanoic acid [OTHx]
Growth on MSM agar plates (P. oleovorans; 0.6% (w/v)): ++ | Growth on MSM agar plates (P. putida; 0.6% (w/v)): ++ | Growth on MSM agar plates (P. aeruginosa; 0.6% (w/v)): ++ | Growth on MSM agar plates (P. mendocina; 0.6% (w/v)): ++ | Use as sole carbon source for growth (Pseudomonas strains): able to use

propylthiooctanoic acid [PTO]
Growth on MSM agar plates (P. oleovorans; 0.4% (w/v)): + | Growth with the substance as the sole carbon source [1]: very poor | Growth on MSM agar plates (P. putida; 0.4% (w/v)): + | Growth on MSM agar plates (P. aeruginosa; 0.4% (w/v)): + | Growth on MSM agar plates (P. mendocina; 0.4% (w/v)): ++ | Use as sole carbon source for growth (Pseudomonas strains): able to use | Concentration above which cell growth was impaired (Pseudomonas strains): higher than 0.8 % (w/v)

O=C(O)CCS [3-mercaptopropionic acid]
Use as sole carbon source for growth (R. eutropha): not able to use | Concentration in the medium above which growth was impaired (R. eutropha; mineral salts medium plus readily utilized carbon source such as gluconic acid, R. eutropha and other bacteria): higher than 0.1 % (w/v)
